Source: PubChem BioAssay (NCI)
“And” between values parts separate entries of the source, which are not always exact repeats. Identical values can stand only once.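 Test compounds were applied to cells in 96-well plates for 48 hours at 5 doses. GI50 marks 50% less growth. The concentration for full growth arrest is given as TGI.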

Columns and labels:
Experiment in all cases: NCI-60 cell line screen, 48 h
[1] = system: MOLT-4 leukemia
[2] = system: HCT-15 colon
[3] = system: CAKI-1 renal
[4] = system: MDA-MB-231 breast
[5] = system: U251 CNS
[6] = system: NCI-H460 lung
[7] = system: MCF7 breast
[8] = system: TK-10 renal
[9] = system: OVCAR-4 ovarian
[10] = system: SK-OV-3 ovarian
[11] = system: M14 melanoma
[12] = system: MALME-3M melanoma
[13] = system: IGROV1 ovarian
[14] = system: OVCAR-5 ovarian
[15] = system: SK-MEL-28 melanoma
[16] = system: NCI-H23 lung
[17] = system: HCC-2998 colon
[18] = system: LOX IMVI melanoma
[19] = system: COLO 205 colon
[20] = system: HT29 colon
[21] = system: RPMI-8226 leukemia
[22] = system: UACC-62 melanoma
[23] = system: SN12C renal
[24] = system: UACC-257 melanoma
[25] = system: BT-549 breast
[26] = system: CCRF-CEM leukemia
[27] = system: OVCAR-8 ovarian
[28] = system: K-562 leukemia
[29] = system: ACHN renal
[30] = system: T-47D breast
[31] = system: KM12 colon
[32] = system: MDA-N
[33] = system: EKVX NSCLC
[34] = system: NCI-H226 lung
[35] = system: SF-539 CNS
[36] = system: DU-145 prostate
[37] = system: SNB-19 CNS
[38] = system: OVCAR-3 ovarian
[39] = system: RXF 393 renal
[40] = system: NCI/ADR-RES ovarian
[41] = system: SR leukemia
[42] = system: A549 NSCLC
[43] = system: HOP-92 NSCLC
[44] = system: SK-MEL-5 melanoma
[45] = system: HCT-116 colon
[46] = system: A498 renal
[47] = system: SF-268 CNS
[48] = system: MDA-MB-435
[49] = system: 786-0 renal
[50] = system: SK-MEL-2 melanoma
[51] = system: SF-295 CNS
[52] = system: SW-620 colon
[53] = system: HS 578T breast
[54] = system: HL-60(TB) leukemia
[55] = system: PC-3 prostate
[56] = system: SNB-75 CNS
[57] = system: HOP-62 NSCLC
[58] = system: NCI-H522 lung
[59] = system: UO-31 renal
[60] = system: DMS 273 small cell lung
[61] = system: KM20L2 colon
[62] = system: HOP-18 NSCLC
[63] = system: LXFL 529 NSCLC
[64] = system: M19-MEL melanoma
[65] = system: DMS 114 small cell lung
[66] = system: DLD-1 colon
[67] = system: SNB-78 CNS

For `O=C1/C(=C2\SCC(=O)N2c2ccccc2)SC(=S)N1c1ccccc1`, the TGI [1] was 51.7 µM, the TGI [2] was > 100 µM and the TGI [3] was 57.1 µM. The TGI [4] was 45.2 µM, the TGI [5] was > 100 µM and the TGI [6] was > 100 µM. The TGI [7] was > 100 µM, the TGI [8] was > 100 µM and the TGI [9] was 66.9 µM. For the same compound, the TGI [10] was 55.2 µM, the TGI [11] was > 100 µM and the TGI [12] was > 100 µM. The TGI [13] was 52.7 µM, the TGI [14] was > 100 µM and the TGI [15] was > 100 µM. For the same compound, the TGI [16] was > 100 µM, the TGI [17] was 62.1 µM and the TGI [18] was > 100 µM. The TGI [19] was > 100 µM, the TGI [20] was > 100 µM and the TGI [21] was > 100 µM. The TGI [22] was > 100 µM, the TGI [23] was 68.6 µM and the TGI [24] was > 100 µM. The TGI [25] was > 100 µM, the TGI [26] was > 100 µM and the TGI [27] was > 100 µM. For the same compound, the TGI [28] was > 100 µM, the TGI [29] was 97.7 µM and the TGI [30] was > 100 µM. The TGI [31] was > 100 µM, the TGI [32] was > 100 µM and the TGI [33] was 82 µM. For the same compound, the TGI [34] was 48.4 µM, the TGI [35] was 85.4 µM and the TGI [36] was > 100 µM. The TGI [37] was > 100 µM, the TGI [38] was 83.2 µM and the TGI [39] was > 100 µM. For the same compound, the TGI [40] was 90.7 µM, the TGI [41] was 29.6 µM and the TGI [42] was > 100 µM. The TGI [43] was 82.7 µM, the TGI [44] was > 100 µM and the TGI [45] was > 100 µM. For the same compound, the TGI [46] was > 100 µM, the TGI [47] was > 100 µM and the TGI [48] was > 100 µM. For the same compound, the TGI [49] was > 100 µM, the TGI [50] was > 100 µM and the TGI [51] was 82.7 µM. For the same compound, the TGI [52] was > 100 µM, the TGI [53] was > 100 µM and the TGI [54] was > 100 µM. The TGI [55] was > 100 µM.

For `Nc1ccc(-c2nc3cc(F)ccc3s2)cc1`, the TGI [1] was > 100 µM, the TGI [2] was > 85.7 µM and the TGI [3] was > 100 µM. The TGI [4] was 81.5 µM, the TGI [5] was > 80 µM and the TGI [6] was > 100 µM. The TGI [7] was > 63.2 µM, the TGI [8] was > 93.1 µM and the TGI [56] was 50.7 µM. For the same compound, the TGI [9] was > 100 µM, the TGI [10] was > 100 µM and the TGI [11] was > 100 µM. The TGI [12] was > 100 µM, the TGI [13] was > 77.9 µM and the TGI [14] was > 92.8 µM. For the same compound, the TGI [15] was > 100 µM, the TGI [16] was > 46.5 µM and the TGI [17] was > 100 µM. For the same compound, the TGI [57] was 39.2 µM, the TGI [18] was > 100 µM and the TGI [19] was > 100 µM. For the same compound, the TGI [20] was > 100 µM, the TGI [21] was > 100 µM and the TGI [22] was > 100 µM. The TGI [23] was > 100 µM, the TGI [24] was > 100 µM and the TGI [25] was > 100 µM. The TGI [26] was > 100 µM, the TGI [27] was > 100 µM and the TGI [28] was > 100 µM. The TGI [29] was > 61.7 µM, the TGI [30] was > 100 µM and the TGI [31] was > 100 µM. The TGI [32] was > 100 µM, the TGI [33] was > 46.6 µM and the TGI [34] was > 100 µM. For the same compound, the TGI [58] was > 100 µM, the TGI [35] was > 100 µM and the TGI [36] was > 100 µM. The TGI [59] was > 100 µM, the TGI [37] was > 100 µM and the TGI [38] was > 100 µM. For the same compound, the TGI [39] was > 100 µM, the TGI [40] was > 100 µM and the TGI [41] was > 100 µM. For the same compound, the TGI [42] was > 100 µM, the TGI [43] was > 93.1 µM and the TGI [44] was > 100 µM. The TGI [45] was > 100 µM, the TGI [46] was > 100 µM and the TGI [47] was > 100 µM. The TGI [48] was > 100 µM, the TGI [49] was > 100 µM and the TGI [50] was > 100 µM. The TGI [51] was > 85.7 µM, the TGI [52] was > 100 µM and the TGI [53] was > 100 µM. The TGI [54] was > 100 µM and the TGI [55] was 45.8 µM.

`O=C(Nc1cccc(C(F)(F)F)c1)c1cc(-c2ccccc2)nc(=S)[nH]1` was tested, and the TGI [2] was > 100 µM, the TGI [3] was > 100 µM and the TGI [6] was > 100 µM. For the same compound, the TGI [9] was > 100 µM, the TGI [11] was > 100 µM and the TGI [12] was > 100 µM. For the same compound, the TGI [14] was > 100 µM, the TGI [17] was > 100 µM and the TGI [57] was > 100 µM. The TGI [18] was > 100 µM, the TGI [60] was > 100 µM and the TGI [19] was > 100 µM. For the same compound, the TGI [20] was > 100 µM, the TGI [23] was > 100 µM and the TGI [24] was > 100 µM. For the same compound, the TGI [27] was > 100 µM, the TGI [31] was > 100 µM and the TGI [34] was > 100 µM. The TGI [61] was > 100 µM, the TGI [59] was > 100 µM and the TGI [37] was > 100 µM. For the same compound, the TGI [38] was > 100 µM, the TGI [41] was > 100 µM and the TGI [43] was > 100 µM. The TGI [62] was > 100 µM, the TGI [45] was > 100 µM and the TGI [63] was > 100 µM. The TGI [64] was > 100 µM, the TGI [50] was > 100 µM and the TGI [51] was > 100 µM. For the same compound, the TGI [52] was > 100 µM and the TGI [54] was > 100 µM.

In the case of `C=CCC(C)(C(=O)NCCC)C(=O)c1ccccc1O` (centres undefined), the TGI [1] was > 100 µM, the TGI [2] was > 100 µM and the TGI [3] was > 100 µM. The TGI [5] was > 100 µM, the TGI [6] was > 100 µM and the TGI [8] was > 100 µM. For the same compound, the TGI [56] was > 100 µM, the TGI [9] was > 100 µM and the TGI [10] was > 100 µM. The TGI [11] was > 100 µM, the TGI [12] was > 100 µM and the TGI [13] was > 100 µM. For the same compound, the TGI [15] was > 100 µM, the TGI [17] was > 100 µM and the TGI [65] was > 100 µM. The TGI [57] was > 100 µM, the TGI [60] was > 100 µM and the TGI [19] was > 100 µM. For the same compound, the TGI [21] was > 100 µM, the TGI [22] was > 100 µM and the TGI [23] was > 100 µM. For the same compound, the TGI [24] was > 100 µM, the TGI [26] was > 100 µM and the TGI [27] was > 100 µM. The TGI [28] was > 100 µM, the TGI [29] was > 100 µM and the TGI [31] was > 100 µM. The TGI [66] was > 100 µM, the TGI [34] was > 100 µM and the TGI [58] was > 100 µM. The TGI [61] was > 100 µM, the TGI [35] was > 100 µM and the TGI [59] was > 100 µM. For the same compound, the TGI [37] was > 100 µM, the TGI [38] was > 100 µM and the TGI [39] was > 100 µM. For the same compound, the TGI [41] was > 100 µM, the TGI [42] was > 100 µM and the TGI [44] was > 100 µM. For the same compound, the TGI [62] was > 100 µM, the TGI [45] was > 100 µM and the TGI [46] was > 100 µM. The TGI [47] was > 100 µM, the TGI [49] was > 100 µM and the TGI [63] was > 100 µM. The TGI [64] was > 100 µM, the TGI [50] was > 100 µM and the TGI [67] was > 100 µM. The TGI [52] was > 100 µM and the TGI [54] was > 100 µM.

With `N#Cc1c(-c2ccccc2)cc(-c2ccccc2)n(C2OC(CO)C(O)C(O)C2O)c1=O` (centres undefined) the TGI [1] was > 100 µM, the GI50 [56] was 34.4 µM and 14.5 µM and the TGI [56] was > 100 µM and 80.9 µM. The TGI [18] was > 100 µM, the TGI [21] was > 100 µM and the TGI [22] was > 100 µM. For the same compound, the TGI [26] was > 100 µM, the TGI [28] was > 100 µM and the TGI [41] was > 100 µM. The GI50 [43] was 88.4 µM and 31.9 µM, the TGI [43] was > 100 µM and the TGI [63] was > 100 µM. The TGI [54] was > 100 µM.
